Experiments:
Conditions in all cases: Tables 2a-2k
[1] = target: T1, ERK-1 protein (Homo sapiens, UniProt P27361); assay: Kinase Selectivity Assay ERK-1; format: biochemical
T1 construct: purchased Calbiochem
Description: Assays to test compound inhibition of other kinases were preformed using methods that measure the amount of phosphorylation of a biotinylated peptide substrate. Biotinylated peptide substrates were selected from the literature as appropriate for the enzyme being evaluated. The general procedure used to assay for kinase activity is as follows: A kinase reaction mix was prepared in 50 mM Tris-HCl pH=8, 10 mM MgCl2, 0.1 mM Na3VO4, 1 mM DTT, 10 μM ATP, 0.25-1 μM biotinylated peptide substrate, 0.2-0.82 μCuries per well ^33P-γ-ATP [2000-3000 Ci/mmol]. Assay conditions vary slightly for each protein kinase, for example, insulin receptor kinase requires 10 mM MnCl2 for activity and Calmodulin-dependent protein kinase requires calmodulin and 10 mM CaCl2. These assay conditions are known in the art. […] The plate was read on a scintillation counter to determine ^33P-γ-ATP incorporated into the immobilized peptide. […] A maximum and minimum signal for the assay was determined on each plate. The IC50 was calculated from the dose response curve of the percent inhibition of the maximum signal in the assay according to the formula [max signal—background/test compound signal—background (100)=% inhibition] by graphing the percent inhibition against the log concentration of test compound. […]

[2] = target: T2, CDK4/D1 complex (Mus musculus, UniProt P30285); assay: Kinase Selectivity Assay CDK4; format: biochemical
T2 construct: made in house; host or cells: insect cells (baculovirus co-infection)
T2 sequence (P30285 whole entry): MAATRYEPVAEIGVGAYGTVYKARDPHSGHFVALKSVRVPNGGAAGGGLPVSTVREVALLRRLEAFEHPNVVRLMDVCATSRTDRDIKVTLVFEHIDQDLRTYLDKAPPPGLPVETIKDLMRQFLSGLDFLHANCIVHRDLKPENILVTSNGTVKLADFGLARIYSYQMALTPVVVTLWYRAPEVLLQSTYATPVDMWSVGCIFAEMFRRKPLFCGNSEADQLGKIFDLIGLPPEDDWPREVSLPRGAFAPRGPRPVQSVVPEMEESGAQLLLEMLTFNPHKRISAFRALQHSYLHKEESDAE
T2 sequence (P25322 whole entry partner): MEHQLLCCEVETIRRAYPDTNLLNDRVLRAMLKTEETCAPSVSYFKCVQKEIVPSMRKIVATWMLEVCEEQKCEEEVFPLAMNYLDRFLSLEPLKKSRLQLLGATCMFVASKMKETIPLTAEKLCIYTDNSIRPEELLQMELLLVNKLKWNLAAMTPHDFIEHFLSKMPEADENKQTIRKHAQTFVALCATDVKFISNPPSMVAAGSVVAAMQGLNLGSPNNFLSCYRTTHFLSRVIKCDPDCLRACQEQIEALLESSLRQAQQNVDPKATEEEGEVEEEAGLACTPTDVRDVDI
Description: Assays to test compound inhibition of other kinases were preformed using methods that measure the amount of phosphorylation of a biotinylated peptide substrate. Biotinylated peptide substrates were selected from the literature as appropriate for the enzyme being evaluated. The general procedure used to assay for kinase activity is as follows: A kinase reaction mix was prepared in 50 mM Tris-HCl pH=8, 10 mM MgCl2, 0.1 mM Na3VO4, 1 mM DTT, 10 μM ATP, 0.25-1 μM biotinylated peptide substrate, 0.2-0.82 μCuries per well ^33P-γ-ATP [2000-3000 Ci/mmol]. Assay conditions vary slightly for each protein kinase, for example, insulin receptor kinase requires 10 mM MnCl2 for activity and Calmodulin-dependent protein kinase requires calmodulin and 10 mM CaCl2. These assay conditions are known in the art. The reaction mixture was dispensed into the wells of a streptavidin coated Flashplate and 1 μl drug stock in 100% DMSO was added to a 100 μl reaction volume resulting in a final concentration of 1% DMSO on the reaction. Enzyme was diluted in 50 mM Tris-HCl pH=8.0, 0.1% BSA and add to each well. The reaction was incubated for one hour at 30° C. in the presence of compound. After one hour the reaction mix was aspirated from the plate and the plate was washed with PBS containing 100 mM EDTA. The plate was read on a scintillation counter to determine ^33P-γ-ATP incorporated into the immobilized peptide. Test compounds were assayed in duplicate at 8 concentrations [100 uM, 10 uM, 1 uM, 100 nM, 10 nM, 1 nM, 100 pM, 10 pM]. A maximum and minimum signal for the assay was determined on each plate. The IC50 was calculated from the dose response curve of the percent inhibition of the maximum signal in the assay according to the formula [max signal—background/test compound signal—background (100)=% inhibition] by graphing the percent inhibition against the log concentration of test compound. Known inhibitor compounds appropriate for the kinase being assayed were also included on each plate. […]

[3] = target: PKC (protein kinase-C), gamma or beta isoform; assay: Kinase Selectivity Assay PKC; format: biochemical, human
Description: Assays to test compound inhibition of other kinases were preformed using methods that measure the amount of phosphorylation of a biotinylated peptide substrate. Biotinylated peptide substrates were selected from the literature as appropriate for the enzyme being evaluated. […] Assay conditions vary slightly for each protein kinase, for example, insulin receptor kinase requires 10 mM MnCl2 for activity and Calmodulin-dependent protein kinase requires calmodulin and 10 mM CaCl2. These assay conditions are known in the art. The reaction mixture was dispensed into the wells of a streptavidin coated Flashplate and 1 μl drug stock in 100% DMSO was added to a 100 μl reaction volume resulting in a final concentration of 1% DMSO on the reaction. Enzyme was diluted in 50 mM Tris-HCl pH=8.0, 0.1% BSA and add to each well. The reaction was incubated for one hour at 30° C. in the presence of compound. After one hour the reaction mix was aspirated from the plate and the plate was washed with PBS containing 100 mM EDTA. The plate was read on a scintillation counter to determine ^33P-γ-ATP incorporated into the immobilized peptide. Test compounds were assayed in duplicate at 8 concentrations [100 uM, 10 uM, 1 uM, 100 nM, 10 nM, 1 nM, 100 pM, 10 pM]. A maximum and minimum signal for the assay was determined on each plate. The IC50 was calculated from the dose response curve of the percent inhibition of the maximum signal in the assay according to the formula [max signal—background/test compound signal—background (100)=% inhibition] by graphing the percent inhibition against the log concentration of test compound. Known inhibitor compounds appropriate for the kinase being assayed were also included on each plate.
CDK2 in complex with cyclin A is commercially available (Upstate Biotech, Lake Placid, N.Y.). […]

T1 sequence (P27361 whole entry, species assumed): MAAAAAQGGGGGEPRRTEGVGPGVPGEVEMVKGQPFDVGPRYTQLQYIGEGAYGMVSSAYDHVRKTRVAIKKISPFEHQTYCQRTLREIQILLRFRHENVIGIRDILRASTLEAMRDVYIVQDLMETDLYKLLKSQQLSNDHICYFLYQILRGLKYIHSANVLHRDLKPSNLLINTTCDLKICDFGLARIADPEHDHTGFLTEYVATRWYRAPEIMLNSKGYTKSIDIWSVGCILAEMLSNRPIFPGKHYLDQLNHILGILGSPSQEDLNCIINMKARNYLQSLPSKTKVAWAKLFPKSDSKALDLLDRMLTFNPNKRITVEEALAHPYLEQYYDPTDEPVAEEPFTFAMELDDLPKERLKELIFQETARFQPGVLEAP

SMILES | IC50 [2] [nM] | other results
Nc1nc(Nc2ccc(S(N)(=O)=O)cc2)nn1C(=O)c1cccs1 [Cpd 14, 4-[[5-amino-1-(2-thienylcarbonyl)-1H-1,2,4-triazol-3-yl]amino]-benzenesulfonamide] | – | IC50 [1]: > 100000 nM
Cc1ccc(F)c(C(=O)n2nc(Nc3ccc(S(N)(=O)=O)cc3)nc2N)c1Cl [Cpd 69, 4-[[5-amino-1-(2-chloro-6-fluoro-3-methylbenzoyl)-1H-1,2,4-triazol-3-yl]amino]-benzenesulfonamide] | 187 | –
Nc1nc(Nc2ccc(S(N)(=O)=O)cc2)nn1C(=O)c1c(F)cccc1Cl [Cpd 70, 4-[[5-amino-1-(2-chloro-6-fluorobenzoyl)-1H-1,2,4-triazol-3-yl]amino]-benzenesulfonamide] | 167 | –
CN1CCN(c2ccc(Nc3nc(N)n(C(=O)c4c(F)cccc4F)n3)cc2)CC1 [Cpd 71, 1-(2,6-difluorobenzoyl)-N^3-[4-(4-methyl-1-piperazinyl)phenyl]-1H-1,2,4-triazole-3,5-diamine] | 129 | –
Cc1ccsc1C(=O)n1nc(Nc2ccc(N3CCNC3=O)cc2)nc1N [Cpd 113, 1-[4-[[5-amino-1-[(3-methyl-2-thienyl)carbonyl]-1H-1,2,4-triazol-3-yl]amino]phenyl]-2-imidazolidinone] | – | IC50 [3]: > 100000 nM

— patent US6924302B2, “Substituted triazole diamine derivatives as kinase inhibitors” (Ortho McNeil Pharmaceutical, Inc., priority 2000, dated 2005)
